Assay results as given in the NIST ThermoML archive (doi:10.1007/s10765-007-0186-y).

Test: molar heat capacity at constant pressure
Conditions: Gas, Flow calorimetry

CC(F)(F)F [1,1,1-trifluoroethane]
Conditions	molar heat capacity at constant pressure [J/K/mol]
311.15 K, 1600 kPa	120.18
317.15 K, 1800 kPa	125.89
318.15 K, 1600 kPa	111.77
318.15 K, 2000 kPa	139.51
324.15 K, 2200 kPa	145.31
326.15 K, 2400 kPa	161.69
327.15 K, 2400 kPa	160.77
338.15 K, 2400 kPa	130.6
341.15 K, 2200 kPa	117.24
343.15 K, 2400 kPa	124.8
